# Measurements: patent US7488476B2, “B-cell epitope peptides of HSP 65, DNA encoding said peptides, antibodies directed against said peptides and the different uses thereof in the treatment of inflammatory and autoimmune diseases” (priority 1998, dated 2009)
# How the values were obtained:
# rat immunoglobulins [1] = assay: Dot-Blot of rat immunoglobulins with synthetic HSP peptides; assay type: binding
# Description: Dot Blots assay: Antigens were dissolved in PBS and samples of 1 μg were adsorbed on Nitrocellulose paper. The paper was air-dried and incubated with BSA 1% in PBS for 20 min. to block non-specific binding. The samples were then washed in PBS-Tween 0.05% and incubated with rat sera diluted 1:100 in BSA-PBS, for 90 min. at room temp. Samples were washed and incubated with goat anti rat antibody conjugated to alkaline phosphatase diluted 1:1000 in BSA-PBS for 90 min. at RT. After re-washing the color reaction was developed by adding a mixture of BCIP-NBT (Sigma-Fast, Sigma) to the […] for 15 min. The reaction was stopped by the addition of tap water.
# To define the epitopes recognized by the anti bacterial HSP antibodies, the inventors tested by Dot-Blot the interaction of immunoglobulins from naive young BN rats and post AA Lewis rats with 90 16-mer synthetic peptides of the Mycobacterial 65 KD HSP. Immunoglobulins from naive young Lewis rats served as control.
# (§1) Immunoglobulins from naive Lewis and BN rats and post-AA Lewis rats were tested for binding to 38 synthetic 20-mer peptides of the mammalian HSP 60 by Dot-Blot. […] Quantitative analysis of this binding as well as the binding of immunoglobulins from four and nine month old Lewis rats confirmed the dot blot findings (Table 3).
# rat immunoglobulins [2] = assay: ELISA: antibodies of rat sera to Mycobacterial HSP 65 and its peptides; assay type: binding
# rat immunoglobulins [3] = assay: ELISA: antibodies of rat sera to mammalian HSP 60 and its peptides; assay type: binding
# Description: (§2) ELISA: Flat-bottomed 96 well plates (Corning) were coated with mammalian HSP 60 or Mycobacterial HSP 65 (10 μg/ml) in carbonate buffer pH 9.6 overnight at 4° C.
# After extensive washing with PBS-Tween 0.05% plates were incubated with blocking buffer containing 1% BSA (Sigma) for 60 min. at RT.
# (§3) HSP peptides were attached to plates pre-treated with glutaraldehyde according to Kasprzyk et al.. Shortly, plates were coated with 100 μl/well of 5% w/v of glutaraldehyde in PBS for 1 hour at room temp. Plates were washed thoroughly with PBS and peptides (1 μg/100 μl) were added to each well, incubated overnight at 4° C. Plates were shaken dry and blocked with BSA 1% in PBS.
# (§4) Plates coated with either HSP or peptides were washed again and incubated with rat sera diluted 1:100 with PBS-Tween 0.01% for 90 min. at room temp. After re-washing the plates were incubated with Goat anti rat IgG or IgM conjugated to alkaline-phosphatase for 60 min. at room temp. […] Optical density was measured photometrically at 405 nm.
# Previous studies have shown that certain bacterial HSP peptides may trigger self HSP reactive T-cells with disease suppressive regulatory potential. To analyze the anti self-HSP antibody repertoire of these rats, the reactivity of Ig's from naive and post AA Lewis rats as well as from naive BN rats to whole mammalian HSP 60 was tested by ELISA.
# as §1
# Lewis rats [4] = assay: Modulation of Adjuvant Arthritis by pre-immunization with HSP peptides; assay type: in vivo, rat; details: 3 IP injections at one week intervals before AA induction with MT, FIG. 4
# Lewis rats [5] = assay: Anti HSP antibodies in Lewis rats immunized with HSP peptides (ELISA); assay type: in vivo, rat; details: 100 μg peptide in PBS, 3 times IP; for Anti HSP Antibodies in Immunized Lewis Rats, Antigen 6: antigen peptide 6; for Anti HSP Antibodies in Immunized Lewis Rats, Antigen 7: antigen peptide 7
# Description: as §2, §3, §4
# Modulation of AA by mycobacterial and mammalian HSP peltides: HSP 65 derived peptides were tested for their ability to modulate the appearance or severity of AA in Lewis rats. Rats were immunized with 100 μg of each peptide in PBS, three weeks (3W), 2W and 1W before induction of AA by MT. Control rats received PBS. Rats were bled for testing antibody presence before injection of MT and 30 days post MT injection.
# To test whether active immunization with bacterial or mammalian HSP peptides that are recognized by protective immunoglobulins can induce protection against AA, Lewis rats were immunized with the mycobacterial peptides 6, 7, 21, 31, 36, 45, 84, that bound antibodies from resistant Lewis rats (“protective” peptides), with some non-reactive mycobacterial HSP 65 peptides: peptide 26 (residues 151-166), 28 (residues 163-178) or peptide 70 (residues 415-430), and with the mammalian peptide 5.
# Rats were injected 3 times intraperitoneally (IP), with one week intervals between injections before induction of AA with MT.
# [6] = all of the rats immunoglobulins tested
# [7] = BN and post-AA Lewis rats, not naive Lewis rats
Substance,reaction with immunoglobulins in Dot-Blot (rat immunoglobulins [1]; [6]),Antibodies to Mycobacterial HSP 65 Peptides (rat immunoglobulins [2]; strain BN-6w),Antibodies to Mycobacterial HSP 65 Peptides (rat immunoglobulins [2]; strain Lew-4m),Antibodies to Mycobacterial HSP 65 Peptides (rat immunoglobulins [2]; strain Lew-6w),Antibodies to Mycobacterial HSP 65 Peptides (rat immunoglobulins [2]; strain Lew-9m),Antibodies to Mycobacterial HSP 65 Peptides (rat immunoglobulins [2]; strain Lew-Post AA),reaction with immunoglobulins in Dot-Blot (rat immunoglobulins [1]; [7]),Antibodies to Mammalian HSP 60 Peptides (rat immunoglobulins [3]; strain BN-6w),Antibodies to Mammalian HSP 60 Peptides (rat immunoglobulins [3]; strain Lew-4m),Antibodies to Mammalian HSP 60 Peptides (rat immunoglobulins [3]; strain Lew-6w),Antibodies to Mammalian HSP 60 Peptides (rat immunoglobulins [3]; strain Lew-9m),Antibodies to Mammalian HSP 60 Peptides (rat immunoglobulins [3]; strain Lew-Post AA),reaction with immunoglobulins in Dot-Blot (rat immunoglobulins [1]; Lewis rats immunized with CFA),AA disease severity after pre-immunization (Lewis rats [4]),"Anti HSP Antibodies in Immunized Lewis Rats, Antigen M5 (Lewis rats [5])","Anti HSP Antibodies in Immunized Lewis Rats, Antigen MT-HSP 65 (Lewis rats [5])","Anti HSP Antibodies in Immunized Lewis Rats, Antigen 6 (Lewis rats [5])","Anti HSP Antibodies in Immunized Lewis Rats, Antigen 7 (Lewis rats [5])"
"63: 16-mer synthetic peptide of Mycobacterial HSP 65, residues 373-388, SEQ ID #16 [Peptide 63]",reacted,+ (0.16-0.45 = +),+ (0.16-0.45 = +),+ (0.16-0.45 = +),+++ (>0.75 = +++),++ (0.46-0.75 = ++),–,–,–,–,–,–,–,–,–,–,–,–
"M 30: 20-mer synthetic peptide of the mammalian HSP 60, residues 436-455 (IVLGGGCALLRCIPALDSLK)",–,–,–,–,–,–,reacted,+ (0.16-0.45 = +),− (<O. 15 = −),− (<O. 15 = −),++ (0.46-0.75 = ++),++ (0.46-0.75 = ++),–,–,–,–,–,–
"84: 16-mer synthetic peptide of Mycobacterial HSP 65, residues 499-514, SEQ ID #17 [Peptide 84]",–,− (<O. 15 = −),− (<O. 15 = −),− (<O. 15 = −),− (<O. 15 = −),+ (0.16-0.45 = +),–,–,–,–,–,–,reacted,–,–,–,–,–
"31: 16-mer synthetic peptide of Mycobacterial HSP 65, residues 181-196, SEQ ID #11 [Peptide 31]",–,+ (0.16-0.45 = +),− (<O. 15 = −),− (<O. 15 = −),++ (0.46-0.75 = ++),++ (0.46-0.75 = ++),–,–,–,–,–,–,–,–,–,–,–,–
"45: 16-mer synthetic peptide of Mycobacterial HSP 65, residues 265-280, SEQ ID #14 [Peptide 45]",–,+ (0.16-0.45 = +),+ (0.16-0.45 = +),− (<O. 15 = −),+ (0.16-0.45 = +),++ (0.46-0.75 = ++),–,–,–,–,–,–,–,–,–,–,–,–
VVLEKKWGAPTITNDG [Peptide 7],–,+ (0.16-0.45 = +),− (<O. 15 = −),− (<O. 15 = −),+ (0.16-0.45 = +),+ (0.16-0.45 = +),–,–,–,–,–,–,–,significant suppression of disease severity,− (<O. 15 = −),+ (0.16-0.45 = +),+ (0.16-0.45 = +),− (<O. 15 = −)
HSP 65: Recombinant HSP 65 of Mycobacterium Tuberculosis,–,+++ (>0.75 = +++),− (<O. 15 = −),− (<O. 15 = −),+ (0.16-0.45 = +),++ (0.46-0.75 = ++),–,–,–,–,–,–,–,–,–,–,–,–
"TVIIEQSWGSPKVTKDGVTV (listed as Rattus norvegicus) [Peptide R5, mammalian HSP 60 peptide, residues 61-80]",–,–,–,–,–,–,reacted,+ (0.16-0.45 = +),− (<O. 15 = −),− (<O. 15 = −),++ (0.46-0.75 = ++),+++ (>0.75 = +++),–,significant suppression of disease severity,− (<O. 15 = −),+ (0.16-0.45 = +),+ (0.16-0.45 = +),− (<O. 15 = −)
"40: 16-mer synthetic peptide of Mycobacterial HSP 65, residues 236-251, SEQ ID #13 [Peptide 40]",reacted,++ (0.46-0.75 = ++),+ (0.16-0.45 = +),+ (0.16-0.45 = +),++ (0.46-0.75 = ++),++ (0.46-0.75 = ++),–,–,–,–,–,–,–,–,–,–,–,–
"36: 16-mer synthetic peptide of Mycobacterial HSP 65, residues 211-226, SEQ ID #12 [Peptide 36]",–,++ (0.46-0.75 = ++),+ (0.16-0.45 = +),− (<O. 15 = −),+ (0.16-0.45 = +),+++ (>0.75 = +++),–,–,–,–,–,–,–,–,–,–,–,–
"59: 16-mer synthetic peptide of Mycobacterial HSP 65, residues 349-364, SEQ ID #15 [Peptide 59]",–,+ (0.16-0.45 = +),− (<O. 15 = −),− (<O. 15 = −),− (<O. 15 = −),+++ (>0.75 = +++),–,–,–,–,–,–,–,–,–,–,–,–
"21: 16-mer synthetic peptide of Mycobacterial HSP 65, residues 121-136, SEQ ID #10 [Peptide 21]",–,− (<O. 15 = −),− (<O. 15 = −),− (<O. 15 = −),− (<O. 15 = −),+ (0.16-0.45 = +),–,–,–,–,–,–,reacted,–,–,–,–,–
